Tested on: NOMO1
Experiment: cell viability relative to DMSO control; higher = less cytotoxic
Conditions: 48 h
Summary of the method: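 Viability was expressed as a per-plate percentage of DMSO wells, with cell-free wells as background. Leukemia cells (NOMO1 or SEM at 500 cells/well, P12-Ichikawa at 1000 cells/well) were adapted for at least four passages in each medium and seeded in 1536-well plates (5 μl). Library compounds in DMSO were pin-dosed over an 11-point threefold series from 47 μM to 0.79 nM, and CellTiter-Glo One luminescence was read after 48 h at 37°C.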

[1] = HPLM + 10% dialyzed FBS, 0.000781 µM
[2] = HPLM + 10% dialyzed FBS, 0.00234 µM
[3] = HPLM + 10% dialyzed FBS, 0.00702 µM
[4] = HPLM + 10% dialyzed FBS, 0.0211 µM
[5] = HPLM + 10% dialyzed FBS, 0.0632 µM
[6] = HPLM + 10% dialyzed FBS, 0.19 µM
[7] = HPLM + 10% dialyzed FBS, 0.569 µM
[8] = HPLM + 10% dialyzed FBS, 1.71 µM
[9] = HPLM + 10% dialyzed FBS, 5.12 µM
[10] = HPLM + 10% dialyzed FBS, 15.4 µM
[11] = HPLM + 10% dialyzed FBS, 46.1 µM
[12] = RPMI 5 mM glucose + 10% FBS, 0.000781 µM
[13] = RPMI 5 mM glucose + 10% FBS, 0.00234 µM
[14] = RPMI 5 mM glucose + 10% FBS, 0.00702 µM
[15] = RPMI 5 mM glucose + 10% FBS, 0.0211 µM
[16] = RPMI 5 mM glucose + 10% FBS, 0.0632 µM
[17] = RPMI 5 mM glucose + 10% FBS, 0.19 µM
[18] = RPMI 5 mM glucose + 10% FBS, 0.569 µM
[19] = RPMI 5 mM glucose + 10% FBS, 1.71 µM
[20] = RPMI 5 mM glucose + 10% FBS, 5.12 µM
[21] = RPMI 5 mM glucose + 10% FBS, 15.4 µM
[22] = RPMI 5 mM glucose + 10% FBS, 46.1 µM
[23] = RPMI 5 mM glucose + 10% dialyzed FBS, 0.000781 µM
[24] = RPMI 5 mM glucose + 10% dialyzed FBS, 0.00234 µM
[25] = RPMI 5 mM glucose + 10% dialyzed FBS, 0.00702 µM
[26] = RPMI 5 mM glucose + 10% dialyzed FBS, 0.0211 µM
[27] = RPMI 5 mM glucose + 10% dialyzed FBS, 0.0632 µM
[28] = RPMI 5 mM glucose + 10% dialyzed FBS, 0.19 µM
[29] = RPMI 5 mM glucose + 10% dialyzed FBS, 0.569 µM
[30] = RPMI 5 mM glucose + 10% dialyzed FBS, 1.71 µM
[31] = RPMI 5 mM glucose + 10% dialyzed FBS, 5.12 µM
[32] = RPMI 5 mM glucose + 10% dialyzed FBS, 15.4 µM
[33] = RPMI 5 mM glucose + 10% dialyzed FBS, 46.1 µM

| SMILES | cell viability [1] [%] | cell viability [2] [%] | cell viability [3] [%] | cell viability [4] [%] | cell viability [5] [%] | cell viability [6] [%] | cell viability [7] [%] | cell viability [8] [%] | cell viability [9] [%] | cell viability [10] [%] | cell viability [11] [%] | cell viability [12] [%] | cell viability [13] [%] | cell viability [14] [%] | cell viability [15] [%] | cell viability [16] [%] | cell viability [17] [%] | cell viability [18] [%] | cell viability [19] [%] | cell viability [20] [%] | cell viability [21] [%] | cell viability [22] [%] | cell viability [23] [%] | cell viability [24] [%] | cell viability [25] [%] | cell viability [26] [%] | cell viability [27] [%] | cell viability [28] [%] | cell viability [29] [%] | cell viability [30] [%] | cell viability [31] [%] | cell viability [32] [%] | cell viability [33] [%] |
| --- | --- | --- | --- | --- | --- | --- | --- | --- | --- | --- | --- | --- | --- | --- | --- | --- | --- | --- | --- | --- | --- | --- | --- | --- | --- | --- | --- | --- | --- | --- | --- | --- | --- |
| C[C@@H]1O[C@@H](O[C@H]2C[C@@H](O)[C@]3(CO)[C@H]4[C@H](O)C[C@]5(C)[C@@H](C6=CC(=O)OC6)CC[C@]5(O)[C@@H]4CC[C@]3(O)C2)[C@H](O)[C@H](O)[C@H]1O | 94.8 | 104 | 99 | 81.8 | 32.9 | 14.5 | 9.66 | 8.1 | 8.19 | 8.12 | 6.11 | 93.1 | 95.2 | 109 | 110 | 95.3 | 39.6 | 13.6 | 8.12 | 8.09 | 7.5 | 5.41 | 97.8 | 109 | 103 | 117 | 73.2 | 30 | 11.3 | 6.76 | 6.52 | 6.15 | 5.29 |
| CCOC(=O)N1c2ccc(C(F)(F)F)cc2[C@@H](N(Cc2cc(C(F)(F)F)cc(C(F)(F)F)c2)C(=O)OC)C[C@H]1CC | 124 | 149 | 123 | 118 | 124 | 139 | 110 | 109 | 120 | 105 | 110 | 121 | 117 | 105 | 118 | 129 | 113 | 115 | 111 | 114 | 112 | 107 | 110 | 117 | 121 | 115 | 121 | 110 | 103 | 112 | 119 | 109 | 93.7 |
| COc1cccc2c1C(=O)c1c(O)c3c(c(O)c1C2=O)C[C@@](O)(C(=O)CO)C[C@@H]3O[C@H]1C[C@H](N)[C@H](O[C@H]2CCCCO2)[C@H](C)O1 | 124 | 106 | 100 | 135 | 117 | 116 | 117 | 108 | 43 | 113 | 63 | 120 | 128 | 122 | 128 | 114 | 128 | 123 | 125 | 22.9 | 124 | 101 | 119 | 116 | 121 | 115 | 104 | 124 | 106 | 123 | 41.7 | 110 | 102 |
| O=C(CCCCCCC(=O)Nc1cccnc1)NO | 92.3 | 108 | 105 | 101 | 114 | 91.1 | 108 | 109 | 91.3 | 70.5 | 8.89 | 83.6 | 91.2 | 98 | 84.1 | 84.9 | 91.8 | 100 | 83.6 | 84.3 | 72.8 | 12.3 | 101 | 92.3 | 93.9 | 93.1 | 101 | 102 | 110 | 85.1 | 95.4 | 74.1 | 12.7 |
| CC[S+](=O)([O-])Nc1ccc2c(c1)/C(=C(/Nc1ccc(CN3CCCCC3)cc1)c1ccccc1)C(=O)N2 | 111 | 114 | 111 | 110 | 113 | 85 | 79.3 | 59.1 | 45.9 | 33.8 | 10.4 | 104 | 102 | 111 | 117 | 99.3 | 49.3 | 47.5 | 53.1 | 47.6 | 39.9 | 18.5 | 99.2 | 102 | 121 | 101 | 104 | 62 | 63.8 | 54.5 | 44.6 | 37.1 | 18.2 |
